In patent publication US8975246B2, “Bile acid or bile salt fatty acid conjugates” (Galmed Research and Development Ltd., priority 2001, dated 2015):

Test system: Inbred C57J/L mice
Experiment: Liver lipid/protein ratio, mice on high fat lithogenic diet
Type: in vivo
Details: BAFAC 150 mg/Kg daily by gavage, 5 weeks
Method: Inbred C57J/L mice, 4 weeks old and weighing approx. 20 gm (Jackson Lab. Maine, USA) were used. They were fed for 5 weeks a high fat lithogenic diet consisting of: Cholesterol 1%, Cholic Acid 0.5%, lard 10%, butter 6%, palmitic acid 1.2% and corn oil 2% added (w/w) to their regular diet. In addition to the diet the animals were given daily, by gavage, either a BAFAC (150 mg/Kg) suspended in saline or an equal volume of saline only. The BAFACs were conjugates of cholic acid (at position 3) with either Palmitic Acid (C-16) or Arachidic Acid (C-20) or Behenic Acid (C-22) using an amide bond. The controls (n=5) received saline, the test animals received either the C-16 conjugate (n=5), the C-20 conjugate (n=5) or the C-22 conjugate (n=3). After 5 weeks, following an overnight fast, the animals were anesthetized using ketamine, the liver was removed, and the animals were sacrificed by ketamine overdose. A 0.5 gm sample of liver was homogenized in 5 ml of buffered saline. Liver lipids were extracted from the homogenate by the Folch method using chloroform:methanol (2:1, vol/vol). Half a ml of the homogenate were extracted in 5 ml of the Folch solution. After evaporation of the solvent the lipids were weighed and reevaporated several times until constant weight was obtained. The proteins were quantified in another aliquot of the homogenate according to the method of Bradford. (Bradford M. M., Annal Biochem. 1976, 72:248).
The lipid protein ratio (mg/mg) was calculated. The results for each group are given as means (+St. Dev.) The group values were: […]

Compound	lipid protein ratio in liver, mean (+St. Dev.)
CCCCCCCCCCCCCCCC(=O)NC1CCC2(C)C(C1)CC(O)C1C2CC(O)C2(C)C(C(C)CCC(=O)O)CCC12 (centres unmarked) [C-16 BAFAC]	2.25 ± 1.20 mg/mg
CCCCCCCCCCCCCCCCCCCCCC(=O)NC1CCC2(C)C(C1)CC(O)C1C2CC(O)C2(C)C(C(C)CCC(=O)O)CCC12 (centres unmarked) [C-22 BAFAC]	3.00 ± 1.08 mg/mg
